Assay results as given in ChEMBL document CHEMBL5352419, “Design, synthesis, and biological evaluation of tetrahydroquinoline amphiphiles as membrane-targeting antimicrobials against pathogenic bacteria and fungi” (Eur J Med Chem, 2022).
In brackets after ≈: the same amount, converted by molar mass.

Key:
Candida albicans [1] = assay: Antimicrobial activity against Candida albicans CMCC98001 assessed as fungal growth inhibition incubated for 48 hrs by Sabouraud Dextrose broth based dilution assay; format: functional
Klebsiella pneumoniae [2] = assay: Antimicrobial activity against Klebsiella pneumoniae ATCC10031 assessed as bacterial growth inhibition incubated for 24 hrs by Muller Hinton broth based dilution assay; format: functional
Staphylococcus aureus [3] = assay: Antimicrobial activity against methicillin-resistant Staphylococcus aureus NCTC10442 assessed as bacterial growth inhibition incubated for 24 hrs by Muller Hinton broth based dilution assay; format: functional
Acinetobacter baumannii [4] = assay: Antimicrobial activity against Acinetobacter baumannii R2889 assessed as bacterial growth inhibition incubated for 24 hrs by Muller Hinton broth based dilution assay; format: functional
[5] = Hemolytic activity in rabbit RBC incubated for 1 hr by absorbance based microplate reader assay; format: toxicity, cell-based, Oryctolagus cuniculus, Erythrocyte; conditions: rabbit red blood cells (erythrocytes)
Candida albicans [6] = assay: Antimicrobial activity against Candida albicans ATCC10231 assessed as fungal growth inhibition incubated for 48 hrs by Sabouraud Dextrose broth based dilution assay; format: functional
Pseudomonas aeruginosa = assay: Antimicrobial activity against Pseudomonas aeruginosa ATCC9027 assessed as bacterial growth inhibition incubated for 24 hrs by Muller Hinton broth based dilution assay; format: functional
Acinetobacter baumannii [7] = assay: Antimicrobial activity against Acinetobacter baumannii ATCC17978 assessed as bacterial growth inhibition incubated for 24 hrs by Muller Hinton broth based dilution assay; format: functional
Staphylococcus aureus [8] = assay: Antimicrobial activity against methicillin-resistant Staphylococcus aureus N315 assessed as bacterial growth inhibition incubated for 24 hrs by Muller Hinton broth based dilution assay; format: functional
Staphylococcus aureus [9] = assay: Antimicrobial activity against Staphylococcus aureus ATCC29213 assessed as bacterial growth inhibition incubated for 24 hrs by Muller Hinton broth based dilution assay; format: functional
Klebsiella pneumoniae [10] = assay: Antimicrobial activity against Klebsiella pneumoniae ATCC14581 assessed as bacterial growth inhibition incubated for 24 hrs by Muller Hinton broth based dilution assay; format: functional
Escherichia coli = assay: Antimicrobial activity against Escherichia coli ATCC25922 assessed as bacterial growth inhibition incubated for 24 hrs by Muller Hinton broth based dilution assay; format: functional
Staphylococcus aureus [11] = assay: Induction of drug resistance in Staphylococcus aureus ATCC29213 assessed as fold increase in MIC at sub-inhibitory concentration incubated for 21 to 22 passages; format: functional

| Compound | MIC (Candida albicans [1]) | MIC (Klebsiella pneumoniae [2]) | MIC (Staphylococcus aureus [3]) | MIC (Acinetobacter baumannii [4]) | HC50 at 1 h [5] | MIC (Candida albicans [6]) | MIC (Pseudomonas aeruginosa) | MIC (Acinetobacter baumannii [7]) | MIC (Staphylococcus aureus [8]) | MIC (Staphylococcus aureus [9]) | MIC (Klebsiella pneumoniae [10]) | MIC (Escherichia coli) | fold change (FC) (Staphylococcus aureus [11]) |
| --- | --- | --- | --- | --- | --- | --- | --- | --- | --- | --- | --- | --- | --- |
| CC(C)=CCN1CCCc2cc(OCCCCCCCCCCNC(=N)N)ccc21 | 1.56 µg/mL (≈ 3.76 µM) | 3.12 µg/mL (≈ 7.54 µM) | 1.56 µg/mL (≈ 3.76 µM) | 12.5 µg/mL (≈ 30.1 µM) | > 200 µg/mL | 1.56 µg/mL (≈ 3.76 µM) | 50 µg/mL (≈ 121 µM) | 25 µg/mL (≈ 60.3 µM) | 0.78 µg/mL (≈ 1.88 µM) | 1.56 µg/mL (≈ 3.76 µM) | 6.25 µg/mL (≈ 15.1 µM) | 12.5 µg/mL (≈ 30.1 µM) | – |
| CCCCCCCCCN1CCCc2cc(OCC(=O)N[C@@H](CCCNC(=N)N)C(=O)OC)ccc21 | 3.12 µg/mL (≈ 6.2 µM) | 3.12 µg/mL (≈ 6.2 µM) | 1.56 µg/mL (≈ 3.1 µM) | 6.25 µg/mL (≈ 12.4 µM) | > 200 µg/mL | 3.12 µg/mL (≈ 6.2 µM) | 12.5 µg/mL (≈ 24.8 µM) | 6.25 µg/mL (≈ 12.4 µM) | 1.56 µg/mL (≈ 3.1 µM) | 3.12 µg/mL (≈ 6.2 µM) | 3.12 µg/mL (≈ 6.2 µM) | 6.25 µg/mL (≈ 12.4 µM) | – |
| CCCCCCCCCN1CCCc2cc(OCC(=O)N[C@@H](CCCNC(=N)N)C(=O)N[C@@H](CCCNC(=N)N)C(N)=O)ccc21 | 50 µg/mL (≈ 77.5 µM) | 6.25 µg/mL (≈ 9.69 µM) | 3.12 µg/mL (≈ 4.85 µM) | 50 µg/mL (≈ 77.5 µM) | > 200 µg/mL | > 50 µg/mL | 25 µg/mL (≈ 38.8 µM) | 12.5 µg/mL (≈ 19.4 µM) | 3.12 µg/mL (≈ 4.85 µM) | 3.12 µg/mL (≈ 4.85 µM) | 6.25 µg/mL (≈ 9.69 µM) | 25 µg/mL (≈ 38.8 µM) | – |
| CCCCCCCCCN1CCCc2cc(OCC(=O)N[C@@H](CCCNC(=N)N)C(=O)N[C@@H](CCCNC(=N)N)C(=O)OC)ccc21 | 50 µg/mL (≈ 75.8 µM) | 3.12 µg/mL (≈ 4.74 µM) | 1.56 µg/mL (≈ 2.36 µM) | 25 µg/mL (≈ 37.9 µM) | > 200 µg/mL | > 50 µg/mL | 6.25 µg/mL (≈ 9.47 µM) | 6.25 µg/mL (≈ 9.47 µM) | 1.56 µg/mL (≈ 2.36 µM) | 1.56 µg/mL (≈ 2.36 µM) | 3.12 µg/mL (≈ 4.74 µM) | 3.12 µg/mL (≈ 4.74 µM) | – |
| CC(C)=CCN1CCCc2cc(OCCCCCCCCCCCCNC(=N)N)ccc21 | 0.78 µg/mL (≈ 1.76 µM) | 3.12 µg/mL (≈ 7.06 µM) | 0.78 µg/mL (≈ 1.76 µM) | 12.5 µg/mL (≈ 28.2 µM) | > 200 µg/mL | 0.78 µg/mL (≈ 1.76 µM) | 50 µg/mL (≈ 113 µM) | 12.5 µg/mL (≈ 28.2 µM) | 0.78 µg/mL (≈ 1.76 µM) | 1.56 µg/mL (≈ 3.52 µM) | 3.12 µg/mL (≈ 7.06 µM) | 12.5 µg/mL (≈ 28.2 µM) | – |
| CCn1cc(C(=O)O)c(=O)c2cc(F)c(N3CCNCC3)cc21 | – | – | – | – | – | – | – | – | – | – | – | – | 1024 |
| CCCCCN1CCCc2cc(OCCCCNC(=N)N)ccc21 | 50 µg/mL (≈ 150 µM) | 6.25 µg/mL (≈ 18.8 µM) | 1.56 µg/mL (≈ 4.69 µM) | 25 µg/mL (≈ 75.2 µM) | 178 µg/mL | 50 µg/mL (≈ 150 µM) | 25 µg/mL (≈ 75.2 µM) | 12.5 µg/mL (≈ 37.6 µM) | 1.56 µg/mL (≈ 4.69 µM) | 1.56 µg/mL (≈ 4.69 µM) | 12.5 µg/mL (≈ 37.6 µM) | 12.5 µg/mL (≈ 37.6 µM) | – |
| FC(F)(F)CCCN1CCCc2cc(OCCCCBr)ccc21 | > 50 µg/mL | – | 12.5 µg/mL (≈ 31.7 µM) | – | > 200 µg/mL | > 50 µg/mL | – | – | 25 µg/mL (≈ 63.4 µM) | 25 µg/mL (≈ 63.4 µM) | – | > 50 µg/mL | – |
| CCCN(CCC)CCCCOc1ccc2c(c1)CCCN2CC=C(C)C | > 50 µg/mL | – | 50 µg/mL (≈ 134 µM) | – | > 200 µg/mL | > 50 µg/mL | – | – | 25 µg/mL (≈ 67.1 µM) | 25 µg/mL (≈ 67.1 µM) | – | > 50 µg/mL | – |
| CCCNCCCCOc1ccc2c(c1)CCCN2CC=C(C)C | > 50 µg/mL | – | 25 µg/mL (≈ 75.6 µM) | – | > 200 µg/mL | > 50 µg/mL | – | – | 25 µg/mL (≈ 75.6 µM) | 50 µg/mL (≈ 151 µM) | – | > 50 µg/mL | – |
